Converted amounts (≈) assume the structure as drawn.
Experiments:
[1] = test system: MCF7; experiment: In vitro cytotoxic activity against human breast cancer cells (MCF-7) by using SRB assay after 72 hr of drug exposure; format: functional, cell-based; conditions: MCF7, 72 h
[2] = test system: MCF7; experiment: In vitro cytotoxic activity against subline resistant to doxorubicin (MCF-7/R) by using SRB assay after 72 hr of drug exposure; format: functional, cell-based; conditions: Homo sapiens, MCF7, 72 h
[3] = test system: SNU-354; experiment: In vitro cytotoxic activity against SNU-354(liver cancer cell) by using SRB assay after 72 hr of drug exposure; format: functional, cell-based; conditions: Homo sapiens, SNU-354, 72 h
[4] = test system: SNU1; experiment: In vitro cytotoxic activity against SNU-1(stomach cancer cell) by using SRB assay after 72 hr of drug exposure; format: functional, cell-based; conditions: Homo sapiens, SNU1, 72 h
[5] = Resistance index expressed as the ratio of IC50 of resistant cell line (MCF-7/R) to IC50 of sensitive cell line (MCF-7); format: functional

For `CC(C)NC(=O)OCc1cnc2c(c1)C(=O)c1ccccc1C2=O`, the IC50 [1] was > 100 mg/L, the IC50 [2] was > 100 mg/L and the IC50 [3] was > 20 mg/L. The IC50 [4] was > 20 mg/L.
`CC(=O)OCc1cnc2c(c1)C(=O)c1ccccc1C2=O` gave a Resistance index [5] of 7.4, an IC50 [1] of 6.7 mg/L (≈ 23.8 µM) and an IC50 [2] of 49.9 mg/L (≈ 177 µM). The IC50 [3] was 11.8 mg/L (≈ 42 µM) and the IC50 [4] was 8.4 mg/L (≈ 29.9 µM).
With `O=C1c2ccccc2C(=O)c2ncc(CBr)cc21` the Resistance index [5] was 1.2, the IC50 [1] was 2.49 mg/L (≈ 8.24 µM) and the IC50 [2] was 3.08 mg/L (≈ 10.2 µM). The IC50 [3] was 0.89 mg/L (≈ 2.95 µM) and the IC50 [4] was 0.56 mg/L (≈ 1.85 µM).
Work on `Cc1cnc2c(c1)C(=O)c1ccccc1C2=O` yielded a Resistance index [5] of 3.8, an IC50 [1] of 18.3 mg/L (≈ 82.1 µM) and an IC50 [2] of 69.1 mg/L (≈ 309 µM). The IC50 [3] was > 20 mg/L and the IC50 [4] was 13.9 mg/L (≈ 62.3 µM).
`O=C1c2ccccc2C(=O)c2ncc(CO)cc21` showed a Resistance index [5] of 2.7, an IC50 [1] of 6.66 mg/L (≈ 27.8 µM) and an IC50 [2] of 17.7 mg/L (≈ 74.1 µM). It also gave an IC50 [3] of 4.5 mg/L (≈ 18.8 µM) and an IC50 [4] of 8.1 mg/L (≈ 33.9 µM).
Compound `O=C(Nc1ccccc1)OCc1cnc2c(c1)C(=O)c1ccccc1C2=O` has a Resistance index [5] of 12.5, an IC50 [1] of 4.58 mg/L (≈ 12.8 µM) and an IC50 [2] of 57.3 mg/L (≈ 160 µM). The IC50 [3] was 15.2 mg/L (≈ 42.4 µM) and the IC50 [4] was 14.9 mg/L (≈ 41.6 µM).
For `COc1cccc2c1C(=O)c1c(O)c3c(c(O)c1C2=O)C[C@@](O)(C(=O)CO)C[C@@H]3O[C@H]1C[C@H](N)[C@H](O)[C@H](C)O1` [DOXORUBICIN], the IC50 [3] was 0.54 mg/L (≈ 0.994 µM) and the IC50 [4] was 0.27 mg/L (≈ 0.497 µM).

— ChEMBL document CHEMBL1129016, “Synthesis and in vitro evaluation of 3-substituted-1-azaanthraquinones” (Bioorg Med Chem Lett, 1996)
